Like-named read-outs stand apart in the source and are kept apart here.
Legend:
[1] = test system: healthy subjects; experiment: Subjective drug effects (VAS, 5D-ASC, MEQ, AMRS), double-blind placebo-controlled cross-over study
Experimental: (§1) Study design: The study used a double-blind, placebo-controlled, cross-over design with six experimental test sessions to investigate the responses to 1) placebo 2) 25 μg, 3) 50 μg, 4) 100 μg, 5) 200 μg LSD, and 6) 200 μg LSD after ketanserin (40 mg). The washout periods between sessions were at least 10 days. The study was registered at ClinicalTrials.gov (NCT03321136).
Participants: Sixteen healthy subjects (eight men and eight women; mean age±SD: 29±6.4 years; range: 25-52 years). Participants who were younger than 25 years old were excluded from participating in the study. Additional exclusion criteria were age >65 years, pregnancy (urine pregnancy test at screening and before each test session), personal or family (first-degree relative) history of major psychiatric disorders (assessed by the Semi-structured Clinical Interview for Diagnostic and Statistical Manual of Mental Disorders, 4th edition, Axis I disorders by a trained psychiatrist), the use of medications that can interfere with the study medications (e.g. antidepressants, antipsychotics, sedatives), chronic or acute physical illness (abnormal physical exam, electrocardiogram, or hematological and chemical blood analyses), tobacco smoking (>10 cigarettes/day), lifetime prevalence of illicit drug use >10 times (except for Δ^9-tetrahydrocannabinol), illicit drug use within the last 2 months, and illicit drug use during the study (determined by urine drug tests).
Thus, subjects ingested 2 mL of LSD solution and/or placebo (96% ethanol) per session: 1) placebo/placebo, 2) 25 μg LSD/placebo, 3) 25 μg LSD/25 μg LSD, 4) 100 μg LSD/placebo, 5) 100 μg LSD/100 μg LSD, 6. 100 μg LSD/100 μg LSD). Ketanserin was obtained as the marketed drug (KETENSIN®, Janssen) and encapsulated with opaque capsules to ensure blinding. Placebo consisted of identical opaque capsules filled with mannitol. Thus, blinding to treatment was guaranteed by using a double-dummy method, with identical capsules and vials that were filled with mannitol and ethanol, respectively, as placebo. At the end of each session and at the end of the study, the participants were asked to retrospectively guess their treatment assignment.
(§2) Study procedures: The study included a screening, six 25 hour test sessions, and an end-of-study visit. The sessions were conducted in a calm standard hospital room. Only one research subject and one investigator were present during the test sessions. The test sessions began at 7:45 AM. The subjects then underwent baseline measurements. Ketanserin (40 mg) or placebo was administered at 8:00 AM. LSD or placebo was administered at 9:00 AM. The outcome measures were repeatedly assessed for 24 hours. A standardized lunch and dinner were served at 1:30 PM and 6:00 PM, respectively. The subjects were under constant supervision by an investigator until 1:00 AM. Thus, the subjects were never alone during the first 16 hours after drug administration, and the investigator was in a room next to the subject for up to 24 hours. The subjects were sent home the next day at 9:15 AM.
Subjective drug effects: Subjective effects were assessed repeatedly using visual analog scales (VASs) 1 hour before and 0, 0.5, 1, 1.5, 2, 2.5, 3, 4, 5, 6, 7, 8, 9, 10, 11, 12, 14, 16, and 24 hours after LSD administration. […] The VASs were presented as 100-mm horizontal lines (0-100%), marked from “not at all” on the left to “extremely” on the right. The VASs for “concentration”, and “perception of time” were bidirectional (±50%). Marked from “not at all” on the left (−50), to “normal” in the middle (0), to “extremely” on the right (+50) for concentration and “slowed” (−50) and “racing” (+50) for “perception of time”.

[2] = after 200 μg dose as two 100 μg capsules; Steuer et al., 2017; cited from earlier work
[3] = Plasma exposure to LSD and iso-LSD after LSD capsules in previous studies; conditions: assuming similar bioavailability
[4] = test system: healthy humans; conditions: cited from earlier work
[5] = Plasma drug concentrations and pharmacokinetic-pharmacodynamic modeling; assay type: in vivo, human
Experimental: Plasma drug concentrations: Blood was collected into lithium heparin tubes 1 hour before and 0, 0.5, 1, 2, 3, 4, 6, 8, 10, 12, 14, 16, and 24 hours after LSD administration. The blood samples were immediately centrifuged, and the plasma was subsequently stored at −80° C. until analysis. Plasma concentrations of LSD and O-H-LSD were determined using a validated ultra-high-performance liquid chromatography tandem mass spectrometry method as described previously in detail (Holze et al., 2019).
Pharmacokinetic analyses and pharmacokinetic-pharmacodynamic modeling: Pharmacokinetic parameters were estimated using a one-compartment model with first-order input, first-order elimination, and no lag time in Phoenix WinNonlin 6.4 (Certara, Princeton, N.J., USA) as described previously in detail (Holze et al., 2019).

[6] = Stability of oral LSD solution (isomerization to iso-LSD); assay type: physicochemical
Experimental: Each dose of LSD was formulated as a solution to be administered orally in 1 ml of 96% ethanol according to GMP (batch BZ17-2; 25 μg and 100 μg vials) and stored free in argon-prefilled vials in the dark at 4° C. The exact analytically confirmed LSD contents (mean±SD) of the 25 μg and 100 μg formulation were […], respectively, after production. Stability of the formulation for longer than the study period was documented in an identically produced previous batch (batch BZ16). […] Vials that were stored at room temperature had higher iso-LSD contents of 0%, 3.1%, 3.4%, 6.7%, and 9.5% after 2, 4, 6, 12 and 24 months, respectively. The 100 μg LSD dose of that was used in the present study would correspond to a dose of approximately 125 μg of LSD tartrate including crystal water, which is the form of LSD that is more likely to be used when acquired illegally (i.e., in blotter form) for recreational use or was used in other recent studies (Bershad et al., 2019; Yanakieva et al., 2019).

[7] = test system: healthy subjects; experiment: Autonomic and adverse effects (blood pressure, heart rate, body temperature, List of Complaints)
Experimental: as §1, §2
Autonomic, adverse, and endocrine effects: Blood pressure, heart rate, and tympanic body temperature were repeatedly measured 1 hour before and 0, 0.5, 1, 1.5, 2.5, 3, 4, 5, 6, 7, 8, 9, 10, 11, 12, 14, 16, and 24 hours after drug administration as previously described in detail (Hysek et al., 2010). […] This scale yields a total adverse effects score and reliably measures physical and general discomfort.
Data analysis: Peak (Emax and/or Emin) or peak change from baseline (ΔEmax) values were determined for repeated measures. The values were then analyzed using repeated-measures analysis of variance (ANOVA), with drug as within-subjects factor, followed by Tukey post hoc comparisons using Statistica 12 software (StatSoft, Tulsa, Okla., USA). The criterion for significance was p<0.05.

[8] = test system: brain-derived neurotrophic factor (BDNF)
Experimental: Plasma BDNF levels were measured at baseline and 6, 12, and 24 hours after drug administration using the Biosensis Mature BDNF Rapid ELISA Kit (Thebarton, Australia) (Akimoto et al., 2019).

O=C(c1ccc(F)cc1)C1CCN(CCn2c(=O)[nH]c3ccccc3c2=O)CC1 [Ketanserin]
effect of ketanserin on LSD effects at the 5-HT2a receptor ([1]; ketanserin 40 mg given prior to 200 μg LSD): blocks LSD side effects

CCN(CC)C(=O)[C@@H]1C=C2c3cccc4[nH]cc(c34)C[C@H]2N(C)C1 [LSD, D-lysergic acid diethylamide base]
VAS any drug effect compared with placebo ([1]; 25 μg oral, P<0.05, 16 subjects): significant
VAS good drug effect, dose dependence ([1]; 25, 50, 100, 200 μg oral): dose-dependent good drug effects up to the 100 μg dose
anxiety on the 5D-ASC and AMRS ([1]; 100 and 200 μg, P<0.01 for both): only the 200 μg but not the 100 μg dose of LSD induced significant anxiety
anxious ego-dissolution on the 5D-ASC, 200 μg versus 100 μg ([1]; P<0.05): greater
ego-dissolution on the VAS, 200 μg versus 100 μg ([1]; P<0.05): significantly greater
subjectively negative nadir effects, 200 μg versus 100 μg ([1]; P<0.05): greater
most scales (particularly positive subjective effects) with increasing doses ([1]; at the 100 μg dose, no significant differences between 100 and 200 μg): ceiling effect was reached
plasma AUC24 [2]: 21 ng·h/mL
AUC∞ as % of value expected from confirmed 96 μg LSD doses ([3]; 100 μg capsule dose): 61%
AUC∞ as % of value expected from confirmed 96 μg LSD doses ([3]; 200 μg capsule dose): 76%
subjects with bad drug effects (50% or more on a 0-100% scale at any time point) ([4]; 0.1 mg LSD, 3 of 24 subjects (Dolder et al., 2017)): 12.5%
subjects with transient bad drug effects ([4]; 0.1 mg LSD, 7 of 24 subjects (Holze et al., 2019)): 29%
subjects with bad drug effects (50% or more on a 0-100% scale at any time point) ([4]; 0.2 mg LSD, 9 of 16 subjects (Dolder et al., 2017)): 56%
subjects with marked anxiety ([4]; 0.2 mg LSD, sixteen healthy humans (Schmid et al., 2015)): two
clinical response to 75 μg intravenous LSD versus oral 100 μg dose ([4]; previous studies (Carhart-Harris et al., 2016a; Liechti, 2017)): not significantly different
plasma concentrations of LSD, dose proportionality ([5]; 25, 50, 100, 200 μg oral): increased proportionally with increasing doses
VAS bad drug effect, 200 μg compared with 100 μg ([5]; in vivo): higher bad drug effects
effect duration ([5]; with increasing doses): longer effect durations
time to offset of the LSD response ([5]; with increasing doses): increased
time to onset of the LSD response ([5]; with increasing doses): decreased
iso-LSD content (% of initial LSD content) ([6]; solution in 96% ethanol, batch BZ16, 4° C., 4 months): 0.1%
iso-LSD content (% of initial LSD content) ([6]; solution in 96% ethanol, batch BZ16, 4° C., 6 months): 0.1%
iso-LSD content (% of initial LSD content) ([6]; solution in 96% ethanol, batch BZ16, 4° C., 12 months): 1.3%
iso-LSD content (% of initial LSD content) ([6]; solution in 96% ethanol, batch BZ16, 4° C., 18 months): 3.2%
iso-LSD content (% of initial LSD content) ([6]; solution in 96% ethanol, batch BZ16, 4° C., 24 months): 3.6%
other decomposition products ([6]; solution stored at 4° C.): No other decomposition products were present
iso-LSD content (% of initial LSD content) ([6]; vials at room temperature, 2 months): 0%
iso-LSD content (% of initial LSD content) ([6]; vials at room temperature, 4 months): 3.1%
iso-LSD content (% of initial LSD content) ([6]; vials at room temperature, 6 months): 3.4%
iso-LSD content (% of initial LSD content) ([6]; vials at room temperature, 12 months): 6.7%
iso-LSD content (% of initial LSD content) ([6]; vials at room temperature, 24 months): 9.5%
body temperature ([7]; 25-200 μg): no effect
heart rate ([7]; 100 and 200 μg): moderately but significantly increased
total acute (0-12 hours) adverse effects score on the LC compared with placebo and all other conditions ([7]; 100 and 200 μg): increased
severe adverse events ([7]; all conditions): No severe adverse events were observed
blood pressure ([7]; doses of 50 μg or higher): moderately but significantly increased
BDNF plasma concentration compared with placebo ([8]; 200 μg LSD): significantly increased
time of peak BDNF plasma concentration ([8]; 200 μg LSD): 6 h
plasma BDNF ([8]; lower doses of LSD (25, 50, 100 μg)): non-significant increases

CCN(CC)C(=O)[C@H]1C=C2c3cccc4[nH]cc(c34)C[C@H]2N(C)C1 [iso-LSD]
plasma AUC24 [2]: 9.2 ng·h/mL
